In paper PMC10885153, “Membrane Permeability in a Large Macrocyclic Peptide Driven by a Saddle-Shaped Conformation” (Journal of the American Chemical Society, 2024):
Positions of bridges follow the written chain, without caps; N, C: chain ends. Non-standard residues stand in square brackets, D forms with d. Residues, ends and D or L forms follow the SMILES beside them. Cha = N[C@@H](CC1CCCCC1)C(=O)O; NMeNva = CCC[C@H](NC)C(=O)O; NMeAbu = CC[C@H](NC)C(=O)O; NMeC = CN[C@@H](CS)C(=O)O; NMeA = CN[C@@H](C)C(=O)O; dAbu = CC[C@@H](N)C(=O)O; dNMeA = CN[C@H](C)C(=O)O; Nva = CCC[C@H](N)C(=O)O; Abu = CC[C@H](N)C(=O)O; Nleu = CC(C)CNCC(=O)O; NPrGly = CCCNCC(=O)O; NEtG = CCNCC(=O)O

Columns and labels:
[1] = PAMPA, compounds measured in multiplex as mixtures (primary protocol); conditions: for Papp at 10 µM: PAMPA, pH 7.4, PAMPA Papp; for Papp at 10 µM / PAMPA Papp: internal standard, 10 µM; for PAMPA Pe_avg: Stereoscan Library A (Scaffold A), average
Experimental: (§1) Passive permeabilities of the 36 compounds were measured in multiplex as mixtures of six compounds each using the parallel artificial membrane permeability assay (PAMPA).[44]−[46]
(§2) Protocol is identical for both mixture and pure compound analysis.
(§3) Two of the following: Carbamazepine (CBZ), propranolol (Prop), and 1NMe35 were
(§4) included as internal standards and prepared as DMSO stocks at a concentration of 2 000 µM.
(§5) assay was carried out with a 96-well donor plate with 0.45 μ hydrophobic Immobilon-P membrane supports
(§6) (Millipore MAIPNTR10) and a 96-well Teflon acceptor plate (Millipore MSSACCEPTOR).
protocol then proceeded as follows:
(§7) Donor well solutions were prepared to a volume of 1 000 µL with the analytes as a solution in 1X
(§8) PBS pH 7.4 and 5% DMSO. To a 3 mL Eppendorf tube was added 950 µL of 1X PBS pH 7.4, 40
(§9) The solutions were vortexed and set aside.
Analyte – 10 µM per compound
(§10) A 1% solution of soy lecithin in dodecane was freshly prepared in a 3 mL Eppendorf tube and
(§11) sonicated (5 min) to ensure full dissolution of the lecithin. The donor membrane plate was turned
(§12) upside down and bottom of the membranes exposed. 5 µL of the 1% soy lecithin solution in
(§13) dodecane was then placed on the bottom of the membrane, allowing the drop to spread across the
(§14) full area of the membrane. Any membranes with visible damage were not used in the assay.
(§15) membranes were allowed to equilibrate for 5 min before loading.
(§16) Each well within the Teflon block acceptor plate that was to be used in the assay was then loaded
(§17) with 300 µL of 1X PBS pH 7.4 and 5% DMSO.
(§18) Working without break, 150 µL of each donor well solution was transferred from the to the 96-well
(§19) donor plate. Each mixture of interest was r un in quadruplicate, using a new well for each replicate.
(§20) As soon as the 96-well donor plate was finished being loaded, it was gently placed into the 96-well
(§21) Teflon acceptor plate, taking care not to trap any air bubbles beneath the membrane.
(§22) The donor/acceptor plates were covered gently with the lid to minimize evaporation and transferred
(§23) gently as a system to a sealed chamber and left to sit overnight at room temperature. The chamber
(§24) was kept from drying by placing a wet paper towel within to prevent evaporation.
(§25) After ~19-20 hours the donor plate was removed from the acceptor plate.
(§26) 50 µL of each well (donor and acceptor) were transferred to a 96 -well plate and diluted with 50 µL
(§27) of methanol prior to heat sealing and quantification by UPLC -MS.

in vitro [2] = conditions: PAMPA, pH 7.4, PAMPA Papp
Experimental: as §5
(Millipore MAIPNTR10) and a 96-well Teflon acceptor plate (Millipore MSSACCEPTOR). The PAMPA
protocol then proceeded as follows:
as §7, §8
Analyte – 10 µM per compound
as §11, §12, §13
full area of the membrane. Any membranes with visible damage were not used in the assay. The
as §15
3. Each well within the Teflon block acceptor plate that was to be used in the assay was then loaded
as §17, §18, §19, §20, §21, §22, §23, §24, §25, §26, §27

in vitro [3] = conditions: dog, pH 7.4
Experimental: We also tested the permeabilities of the pure compounds in a cell-based trans-well permeability assay using Mdr1 knockout Madin–Darby canine kidney (MDCK) cells which minimize the endogenous efflux activity of traditional MDCK cells.[54]
The gMDCKI cell line (overexpressed cell line of Madin -Darby Canine Kidney which acquired from the NIH)
maintained in DMEM medium supplemented with 1% pen -strep, 5 µg/mL Plasmocin, and 10% FBS under
standard culture conditions (37 °C, 95% humidity, and 5% CO2), were seeded (0.75 x 10^5 cells) on the HTS
Transwell-96 permeable support (Corning) to form a confluent monolayer for two days.
All experimental steps were fully automated on Hamilton Vantage. Compound stock solution (1 mM in
DMSO) was diluted (10 μM final in HBSS, pH 7.4) with Lucifer Yellow as leakage indicator (20 μM). After
washing with HBSS buffer, the solution of test compounds was added to the apical side of the monolayers.
The plate was incubated for 3 h at 37 °C. T0 samples (10 µL of the 10 µM compounds diluted solution with
LY) were transferred to a 96-well plate, and then 40 µL of HBSS was added. After 3 hours, 50 μL basolateral
samples in the receiving plate were transferred to a fresh 96-well plate and added 100 μL of IS solution
(Propranolol). LY were read by plate reader and the samples were analyzed by LC/MS/MS.
The apparent permeability coefficient (Papp) is calculated from the permeation rate and compound
concentration at t=0h and t=3h. Where:
dQ/dt: amount of product present in the basal (A-B) or apical (B-A) compartment as a function of time
A: area of transwell (cm2).
C0: initial concentration of product applied in the apical (A -B) or basal (B-A) compartment (nmol/ml).

in vitro [4] = conditions: PAMPA
Experimental: as §1, §2, §3, §4, §5, §6
protocol then proceeded as follows:
as §7, §8, §9
Analyte – 10 µM per compound
as §10, §11, §12, §13, §14, §15, §16, §17, §18, §19, §20, §21, §22, §23, §24, §25, §26, §27

[5] = PAMPA, 10 µM, pH 7.4
Experimental: as §1, §2, §3, §4, §5, §6
protocol then proceeded as follows:
as §7, §8, §9
Analyte – 10 µM per compound
as §10, §11, §12, §13, §14, §15, §16, §17, §18, §19, §20, §21, §22, §23, §24, §25, §26, §27

SMILES: CC(C)NCC(O)COc1cccc2ccccc12 (stereo not shown) [Propranolol]
- Papp at 10 µM ([1]; Lipo expt. group A1): 9.1 ± 0.4 ×10⁻⁶ cm/s
- Papp at 10 µM ([1]; Lipo expt. group A2): 9.2 ± 0.9 ×10⁻⁶ cm/s
- Papp at 10 µM ([1]; Lipo expt. group B2): 8.8 ± 0.2 ×10⁻⁶ cm/s
- Papp at 10 µM ([1]; Lipo expt. group C1): 9.8 ± 0.2 ×10⁻⁶ cm/s
- PAMPA Papp ([1]; Lipo expt. group B1): 7.7 ± 0.8 x10-6 cm/s
- PAMPA Papp ([1]; Lipo expt. group C2): 9.4 ± 0.4 x10-6 cm/s

SMILES: CCOC(=O)[C@@H]1CSCC(=O)N[C@H](CC)C(=O)N(CC(C)C)CC(=O)N[C@H](CC(C)C)C(=O)N(C)[C@H](C)C(=O)N(C)[C@@H](C)C(=O)N[C@H](CC(C)C)C(=O)N(C)[C@H](C)C(=O)N[C@@H](CC(C)C)C(=O)N1C [B1-3D, O=C([C@@H](NC([C@H](N(C([C@H](NC([C@@H](N(C([C@H](N(C)C([C@H](NC(CN1CC(C)C)=O)CC(C)C)=O)C)=O)C)C)=O)CC(C)C)=O)C)C)=O)CC(C)C)N([C@@H](CSCC(N[C@H](CC)C1=O)=O)C(OCC)=O)C] ({CH2CO}-[dAbu][Nleu][dL][dNMeA][NMeA][dL][dNMeA]L[NMeC]-OEt; thioether N-9)
- Papp at 10 µM (in vitro [2]): 1.5 ×10⁻⁶ cm/s
- Papp at 3 h, 10 µM (in vitro [3]; MDCK): 0.5 ×10⁻⁶ cm/s
- Papp A→B at 3 h, 10 µM (in vitro [3]): 0.48 ×10⁻⁶ cm/s

SMILES: NC(=O)N1c2ccccc2C=Cc2ccccc21 [Carbamazepine]
- Papp at 10 µM ([1]; Lipo expt. group A1): 5.9 ± 0.3 ×10⁻⁶ cm/s
- Papp at 10 µM ([1]; Lipo expt. group A2): 6 ± 0.4 ×10⁻⁶ cm/s
- Papp at 10 µM ([1]; Lipo expt. group B1): 5.8 ± 0.4 ×10⁻⁶ cm/s
- Papp at 10 µM ([1]; Lipo expt. group B2): 6.3 ± 0.2 ×10⁻⁶ cm/s
- Papp at 10 µM ([1]; Lipo expt. group C1): 6.8 ± 0.1 ×10⁻⁶ cm/s
- Papp at 10 µM ([1]; Lipo expt. group C2): 6 ± 0.1 ×10⁻⁶ cm/s
- Papp at 10 µM ([1]; StereoA expt. group A2D): 4.4 ± 0.1 ×10⁻⁶ cm/s
- Papp at 10 µM ([1]; StereoA expt. group A2L): 4.4 ± 0.1 ×10⁻⁶ cm/s
- Papp at 10 µM ([1]; StereoA expt. group ADD): 4.2 ± 0.1 ×10⁻⁶ cm/s
- Papp at 10 µM ([1]; StereoA expt. group ADL): 4.3 ± 0.2 ×10⁻⁶ cm/s
- Papp at 10 µM ([1]; StereoA expt. group ALD): 4.3 ± 0.1 ×10⁻⁶ cm/s
- Papp at 10 µM ([1]; StereoA expt. group ALL): 5.1 ± 0.3 ×10⁻⁶ cm/s
- Papp at 10 µM ([1]; StereoB expt. group B2D): 6.3 ± 1.7 ×10⁻⁶ cm/s
- Papp at 10 µM ([1]; StereoB expt. group B2L): 5.6 ± 0.2 ×10⁻⁶ cm/s
- Papp at 10 µM ([1]; StereoB expt. group BDD): 5.5 ± 0.1 ×10⁻⁶ cm/s
- Papp at 10 µM ([1]; StereoB expt. group BDL): 5.8 ± 0.1 ×10⁻⁶ cm/s
- Papp at 10 µM ([1]; StereoB expt. group BLD): 5.5 ± 0.1 ×10⁻⁶ cm/s
- Papp at 10 µM ([1]; StereoB expt. group BLL): 5.8 ± 0.2 ×10⁻⁶ cm/s

SMILES: CCCN1CC(=O)N[C@@H](CC(C)C)C(=O)N2CCC[C@@H]2C(=O)N(C)[C@@H](C)C(=O)N[C@@H](CC(C)C)C(=O)N(C)[C@@H](C)C(=O)N[C@@H](CC(C)C)C(=O)N(C)[C@H](C(=O)OCC)CSCC(=O)N[C@@H](CC(C)C)C1=O [LB08, O=C(N(C)[C@H](C(OCC)=O)CSCC(N[C@H](C1=O)CC(C)C)=O)[C@H](CC(C)C)NC([C@H](C)N(C)C([C@H](CC(C)C)NC([C@H](C)N(C)C([C@@H]2N(C([C@H](CC(C)C)NC(CN1CCC)=O)=O)CCC2)=O)=O)=O)=O] ({CH2CO}-L[NPrGly]L[dP][NMeA]L[NMeA]L[NMeC]-OEt; thioether N-9)
- Papp at 10 µM (in vitro [4]; pH 7.4, Pe_avg): 2.29 ×10⁻⁶ cm/s
- %R_avg [5]: 13.3%

SMILES: CCOC(=O)[C@@H]1CSCC(=O)N[C@H](CC)C(=O)N(C)[C@@H](C)C(=O)N[C@H](CC(C)C)C(=O)N(C)[C@H](C)C(=O)N(CC(C)C)CC(=O)N[C@@H](CC(C)C)C(=O)N(C)[C@@H](C)C(=O)N[C@@H](CC(C)C)C(=O)N1C [JF206_A2D_DDLL_Isobutyl] ({CH2CO}-[dAbu][NMeA][dL][dNMeA][Nleu]L[NMeA]L[NMeC]-OEt; thioether N-9)
- PAMPA Pe_avg [1]: 0 cm/s

SMILES: CCOC(=O)[C@@H]1CSCC(=O)N[C@@H](CC(C)C)C(=O)N(C)[C@@H](C)C(=O)N[C@@H](CC(C)C)C(=O)N2CCC[C@@H]2C(=O)N(C)[C@@H](CC)C(=O)N[C@@H](CC)C(=O)N(C)[C@@H](C)C(=O)N[C@@H](CC(C)C)C(=O)N1C [LC02, O=C(N(C)[C@H](C(OCC)=O)CSCC(N[C@H](C(N(C)[C@@H](C)C(N[C@@H](CC(C)C)C(N1[C@H](CCC1)C(N(C)[C@@H](CC)C(N[C@H]2CC)=O)=O)=O)=O)=O)CC(C)C)=O)[C@H](CC(C)C)NC([C@H](C)N(C)C2=O)=O] ({CH2CO}-L[NMeA]L[dP][NMeAbu][Abu][NMeA]L[NMeC]-OEt; thioether N-9)
- Papp at 10 µM (in vitro [4]; pH 7.4, Permeability (Papp) PAMPA (mixture)): 5 ×10⁻⁶ cm/s
- Papp A→B at 3 h, 10 µM (in vitro [3]; MDCK): 7.4 ×10⁻⁶ cm/s
- Papp at 3 h, 10 µM (in vitro [3]; MDCK): 7.4 ×10⁻⁶ cm/s
- %R_avg [5]: 19.3%

SMILES: CCC[C@@H]1NC(=O)CN(CC)C(=O)[C@H](CC(C)C)NC(=O)CSC[C@@H](C(=O)OCC)N(C)C(=O)[C@H](CC(C)C)NC(=O)[C@H](C)N(C)C(=O)[C@H](CC(C)C)NC(=O)[C@H](C)N(C)C(=O)[C@H]2CCCN2C1=O [LB05, O=C(N(C)[C@H](C(OCC)=O)CSCC(N[C@H](C1=O)CC(C)C)=O)[C@H](CC(C)C)NC([C@H](C)N(C)C([C@H](CC(C)C)NC([C@H](C)N(C)C([C@@H]2N(C([C@H](CCC)NC(CN1CC)=O)=O)CCC2)=O)=O)=O)=O] ({CH2CO}-L[NEtG][Nva][dP][NMeA]L[NMeA]L[NMeC]-OEt; thioether N-9)
- Papp at 10 µM (in vitro [4]; pH 7.4, Pe_avg): 2.57 ×10⁻⁶ cm/s
- %R_avg [5]: 50.3%

SMILES: CCCN1CC(=O)N[C@@H](CC(C)C)C(=O)N2CCC[C@@H]2C(=O)N(C)[C@@H](C)C(=O)N[C@@H](CC2CCCCC2)C(=O)N(C)[C@@H](C)C(=O)N[C@@H](CC(C)C)C(=O)N(C)[C@H](C(=O)OCC)CSCC(=O)N[C@@H](CC(C)C)C1=O [LB12, O=C(N(C)[C@H](C(OCC)=O)CSCC(N[C@H](C1=O)CC(C)C)=O)[C@H](CC(C)C)NC([C@H](C)N(C)C([C@H](CC2CCCCC2)NC([C@H](C)N(C)C([C@@H]3N(C([C@H](CC(C)C)NC(CN1CCC)=O)=O)CCC3)=O)=O)=O)=O] ({CH2CO}-L[NPrGly]L[dP][NMeA][Cha][NMeA]L[NMeC]-OEt; thioether N-9)
- Papp at 10 µM (in vitro [4]; pH 7.4, Pe_avg): 0.072 ×10⁻⁶ cm/s
- Papp at 10 µM (in vitro [4]; pH 7.4, log(Pe)_avg): 0.0593 ×10⁻⁶ cm/s
- %R_avg [5]: 6.0%

SMILES: CCOC(=O)[C@@H]1CSCC(=O)N[C@H](CC)C(=O)N(C)[C@@H](C)C(=O)N[C@H](CC(C)C)C(=O)N(C)[C@H](C)C(=O)N(CC)CC(=O)N[C@@H](CC(C)C)C(=O)N(C)[C@@H](C)C(=O)N[C@@H](CC(C)C)C(=O)N1C [JF206_A2D_DDLL_Ethyl] ({CH2CO}-[dAbu][NMeA][dL][dNMeA][NEtG]L[NMeA]L[NMeC]-OEt; thioether N-9)
- PAMPA Pe_avg [1]: 0 cm/s

SMILES: CCC[C@@H]1NC(=O)CN(CCC)C(=O)[C@H](CC(C)C)NC(=O)CSC[C@@H](C(=O)OCC)N(C)C(=O)[C@H](CC(C)C)NC(=O)[C@H](C)N(C)C(=O)[C@H](CC2CCCCC2)NC(=O)[C@H](C)N(C)C(=O)[C@H]2CCCN2C1=O [LB11, O=C(N(C)[C@H](C(OCC)=O)CSCC(N[C@H](C1=O)CC(C)C)=O)[C@H](CC(C)C)NC([C@H](C)N(C)C([C@H](CC2CCCCC2)NC([C@H](C)N(C)C([C@@H]3N(C([C@H](CCC)NC(CN1CCC)=O)=O)CCC3)=O)=O)=O)=O] ({CH2CO}-L[NPrGly][Nva][dP][NMeA][Cha][NMeA]L[NMeC]-OEt; thioether N-9)
- Papp at 10 µM (in vitro [4]; pH 7.4, Pe_avg): 0.619 ×10⁻⁶ cm/s
- Papp at 10 µM (in vitro [4]; pH 7.4, log(Pe)_avg): 0.551 ×10⁻⁶ cm/s
- %R_avg [5]: 6.2%

SMILES: CCCN1CC(=O)N[C@@H](CC(C)C)C(=O)N(C)[C@@H](C)C(=O)N[C@@H](CC(C)C)C(=O)N(C)[C@H](C(=O)OCC)CSCC(=O)N[C@@H](CC(C)C)C(=O)N(C)[C@@H](C)C(=O)N[C@@H](CC(C)C)C(=O)N2CCC[C@@H]2C1=O [LA08, O=C(N(C)[C@H](C(OCC)=O)CSCC(N[C@H](C(N(C)[C@@H](C)C(N[C@@H](CC(C)C)C(N1[C@H](CCC1)C(N(CCC)CC(N[C@H]2CC(C)C)=O)=O)=O)=O)=O)CC(C)C)=O)[C@H](CC(C)C)NC([C@H](C)N(C)C2=O)=O] ({CH2CO}-L[NMeA]L[dP][NPrGly]L[NMeA]L[NMeC]-OEt; thioether N-9)
- Papp at 10 µM (in vitro [4]; pH 7.4, Pe_avg): 0.794 ×10⁻⁶ cm/s
- %R_avg [5]: 4.8%
- log(Pe)_avg [5]: -6.100

SMILES: CCC[C@H]1C(=O)N[C@@H](CC2CCCCC2)C(=O)N(C)[C@@H](C)C(=O)N[C@@H](CC(C)C)C(=O)N(C)[C@H](C(=O)OCC)CSCC(=O)N[C@@H](CC(C)C)C(=O)N(C)[C@@H](C)C(=O)N[C@@H](CC(C)C)C(=O)N2CCC[C@@H]2C(=O)N1C [LC12, O=C(N(C)[C@H](C(OCC)=O)CSCC(N[C@H](C(N(C)[C@@H](C)C(N[C@@H](CC(C)C)C(N1[C@H](CCC1)C(N(C)[C@@H](CCC)C(N[C@H]2CC3CCCCC3)=O)=O)=O)=O)=O)CC(C)C)=O)[C@H](CC(C)C)NC([C@H](C)N(C)C2=O)=O] ({CH2CO}-L[NMeA]L[dP][NMeNva][Cha][NMeA]L[NMeC]-OEt; thioether N-9)
- %R_avg [5]: 12.7%
- Pe_avg [5]: 0 cm/s

SMILES: CCC[C@@H]1NC(=O)[C@H](C)N(C)C(=O)[C@H](CC(C)C)NC(=O)CSC[C@@H](C(=O)OCC)N(C)C(=O)[C@H](CC(C)C)NC(=O)[C@H](C)N(C)C(=O)[C@H](CC)NC(=O)CN(CCC)C(=O)[C@H]2CCCN2C1=O [LA03, O=C(N(C)[C@H](C(OCC)=O)CSCC(N[C@H](C(N(C)[C@@H](C)C(N[C@@H](CCC)C(N1[C@H](CCC1)C(N(CCC)CC(N[C@H]2CC)=O)=O)=O)=O)=O)CC(C)C)=O)[C@H](CC(C)C)NC([C@H](C)N(C)C2=O)=O] ({CH2CO}-L[NMeA][Nva][dP][NPrGly][Abu][NMeA]L[NMeC]-OEt; thioether N-9)
- %R_avg [5]: 25.8%
